Measured values as given in patent US6458840B2, “Use of valproic acid analog for the treatment and prevention of migraine and affective illness” (American Biogenetic Sciences, Inc., priority 1998, dated 2002).
≈ marks a conversion by molar mass, not a printed value. Where “and” joins values, the source holds several entries; their conditions need not be identical. Equal values may be shown once. Entries after “also recorded” stand apart in the source; their conditions may differ.

Legend:
[1] = tested on: amygdala-kindled seizures; assay: Amygdala-kindling in fully kindled rats (anti-seizure effects); format: in vivo, rat; conditions: for afterdisch.dur.1 (ADD1) / afterdisch.dur.2 (ADD2) / afterdisch.thresh. (ADT) / seizure duration1 (SD1) / seizure duration2 (SD2) / seizure severity (SS): 15 min pretreatment, mean (X); for seizure severity (SS): Racine score; for increase of afterdischarge threshold: versus pre-drug control
Method: For implantation of stimulation and recording electrodes, rats were anesthetized with chloral hydrate (360 mg/kg i.p.) and received stereotaxic implantation (according to the surgery methods described in the atlas of Paxinos and Watson [1986]) of one bipolar electrode in the right basolateral amygdala. Coordinates for electrode implantation were AP-2.2 mm, L-4.8 mm, V-8.5 mm. All coordinates were measured from bregma. Skull screws served as the indifferent reference electrode. The electrode assembly was attached to the skull by dental acrylic cement. After a postoperative period of 2 weeks, constant current stimulations (500 μA, 1 ms, monophasic square-wave pulses, 50/s for 1 s) were delivered to the amygdala at intervals of 1/day until ten stage 5 seizures were elicited. The electrical susceptibility of the stimulated region (threshold for induction of afterdischarges) was recorded on the first day of the experiment (initial afterdischarge threshold) as well as after kindling acquisition (with an interval of at least 4 days after the tenth stage 5 seizure) using an ascending staircase procedure. The initial current intensity was 1 OμA, and the current intensity was increased in steps of about 20% of the previous current at intervals of 1 min until an afterdischarge of at least 3 s duration was elicited. […] In addition to afterdischarge threshold, the following parameters of kindled seizures were measured in fully-kindled rats after stimulation with the afterdischarge threshold current: seizure severity was classified according to Racine (1972): 1 -immobility, eye closure, twitching of vibrissae, sniffing, facial clonus; 2-head nodding associated with more severe facial clonus; 3-clonus of one forelimb; 4-rearing, often accompanied by bilateral forelimb clonus; 5-rearing with loss of balance and falling accompanied by generalized clonic seizures. Seizure duration 1 (SD 1) was the duration of limbic (stage 1-2) and/or motor seizures (stage 3-5). Seizure duration 2 (SD 2) included the time of limbic and/or motor seizures plus the adjacent time of immobility. Afterdischarge duration 1 (ADD 1) was the time of spikes in the EEG recorded from the site of stimulation with a frequency of at least 1 /s. Afterdischarge duration 2 (ADD 2) was the total time of spikes occurring in the EEG including those, which followed the ADD 1 with lower frequency and amplitude.
The anti-seizure effects of 2-propyl-4-hexynoic acid and valproate in fully kindled rats were determined in a group of 8-9 rats (no. 784, 785, 787, 788, 789, 790 [had to be taken out of the trial, because of loss of electrodes], 791, 792, 793) with reproducible stage 5 seizures.
Drugs were injected 15 min prior to stimulation intraperitoneally. Control experiments were always performed 2-3 days before each drug experiment. For control determinations, rats received i.p. injections of vehicle (saline) with the pretreatment time of the respective drug experiment. For all drug experiments, at least 4 days were interposed between 2 drug injections in order to avoid alterations in drug potency due to cumulation or tolerance.
The significance of differences between pre-drug control recordings and recordings after drug injection was calculated by the Wilcoxon signed rank test for paired replicates (SigmaStat for Windows, version 1.0).

Drug solubility test = format: physicochemical; conditions: read-out: concentration in drug solubility test
PTZ induced seizures = conditions: literature / earlier application; cited from earlier work
[2] = 100 mg/kg i.p., listed as valproate
[3] = 200 mg/kg i.p., listed as valproate

SMILES	afterdisch.dur.1 (ADD1) ([1]; 50 mg/kg i.p.) [s]	afterdisch.dur.2 (ADD2) ([1]; 50 mg/kg i.p.) [s]	afterdisch.thresh. (ADT) ([1]; 50 mg/kg i.p.) [μA]	seizure duration1 (SD1) ([1]; 50 mg/kg i.p.) [s]	seizure duration2 (SD2) ([1]; 50 mg/kg i.p.) [s]	seizure severity (SS) ([1]; 50 mg/kg i.p.) [score]	afterdisch.dur.1 (ADD1) ([1]; 75 mg/kg i.p.) [s]	afterdisch.dur.2 (ADD2) ([1]; 75 mg/kg i.p.)	afterdisch.thresh. (ADT) ([1]; 75 mg/kg i.p.) [μA]	seizure duration1 (SD1) ([1]; 75 mg/kg i.p.)	seizure duration2 (SD2) ([1]; 75 mg/kg i.p.) [s]	seizure severity (SS) ([1]; 75 mg/kg i.p.)	increase of afterdischarge threshold ([1]; 75 mg/kg i.p.) [%]	seizure duration1 (SD1) ([1]; 100 mg/kg i.p.) [s]	seizure severity (SS) ([1]; 100 mg/kg i.p.) [score]	increase of afterdischarge threshold ([1]; 100 mg/kg i.p.) [%]	afterdisch.dur.2 (ADD2) ([1]; 200 mg/kg i.p.) [s]	seizure duration1 (SD1) ([1]; 200 mg/kg i.p.) [s]	seizure severity (SS) ([1]; 200 mg/kg i.p.) [score]	increase of afterdischarge threshold ([1]; 200 mg/kg i.p.) [%]	further results
CC#CCC(CCC)C(=O)O (centres unmarked) [2-propyl-4-hexynoic acid, 2-n-propyl-4-hexynoic acid]	93.11	93.11	37.33	78.44	234.33	4.89	16.25	16 s and 16.25 s	88.50	16 s and 16.25 s	16.25	2.3 score and 2.25 score	109	47	3.6	160	24	19	1.8	209	effects against amygdala-kindled seizures, in words ([1]; 50 mg/kg i.p.): no significant effects; afterdisch.thresh. (ADT; μA) ([1]; 200 mg/kg, mean (X) of 8 kindled rats, control mean 57.88): 178.75 μA; seizure severity (SS; score) ([1]; 200 mg/kg, mean of 8 rats, control mean 4.63): 1.75 score; seizure duration1 (SD1; sec) ([1]; 200 mg/kg, mean of 8 rats, control mean 61.63): 19.25 s; afterdisch.dur.1 (ADD1;sec) ([1]; 200 mg/kg, mean of 8 rats, control mean 77.25): 23.50 s; afterdisch.dur.2 (ADD2; sec) ([1]; 200 mg/kg, mean of 8 rats, control mean 88.13): 23.50 s; seizure duration2 (SD2; sec) ([1]; 200 mg/kg, mean of 8 rats, control mean 197.88): 36.38 s; solubility (Drug solubility test): 18.5 mg/mL (≈ 120 mM); antiepileptic effect in PTZ test, in words (PTZ induced seizures): effective antiepileptic with a longer duration of activity and greatly reduced sedative and teratogenic effects compared to valproic acid; also recorded: improved antiepileptic compared to valproic acid
CCCC(CCC)C(=O)O [Valproate, valproic acid]	76.67	76.67	60.44	72.22	231.67	4.33	67.25	67.25 s	73.13	54.00 s	250.75	4.13 score	77	18.22	3.00	319	8.75	8.75	1.63	970	increase of afterdischarge threshold ([1]; 50 mg/kg i.p.): 109%; afterdisch.dur.1 (ADD1) ([1]; 100 mg/kg i.p.): 20.00 s; afterdisch.dur.2 (ADD2) ([1]; 100 mg/kg i.p.): 20.00 s; afterdisch.thresh. (ADT) ([1]; 100 mg/kg i.p.): 151.67 μA; seizure duration2 (SD2) ([1]; 100 mg/kg i.p.): 43.44 s; seizure severity (SS) [1, 2]: 3.0 score; afterdisch.dur.2 (ADD2) [1, 2]: 20 s; seizure duration1 (SD1) [1, 2]: 18 s; afterdisch.dur.1 (ADD1) ([1]; 200 mg/kg i.p.): 8.75 s; afterdisch.thresh. (ADT) ([1]; 200 mg/kg i.p.): 496.25 μA; seizure duration2 (SD2) ([1]; 200 mg/kg i.p.): 8.75 s; seizure severity (SS) [1, 3]: 1.6 score; afterdisch.dur.2 (ADD2) [1, 3]: 9 s; seizure duration1 (SD1) [1, 3]: 9 s; effects against amygdala-kindled seizures, in words ([1]; all doses tested: 50, 75, 100, 200 mg/kg i.p.): significant effects against amygdala-kindled seizures; solubility (Drug solubility test): 20 mg/mL (≈ 139 mM)
